From US6387950B2, “Treatment of tumors with RARα selective retinoid compounds in combination with other anti-tumor agents” (Allergan Sales, Inc., priority 2000, dated 2002)

Columns and labels:
[1] = target: T1, RARβ receptors (Homo sapiens, UniProt P10826); test: chimeric receptor transactivation assay, RARβ; format: cell-based; conditions: agonist activity
T1 sequence (P10826 183-417 limits assumed): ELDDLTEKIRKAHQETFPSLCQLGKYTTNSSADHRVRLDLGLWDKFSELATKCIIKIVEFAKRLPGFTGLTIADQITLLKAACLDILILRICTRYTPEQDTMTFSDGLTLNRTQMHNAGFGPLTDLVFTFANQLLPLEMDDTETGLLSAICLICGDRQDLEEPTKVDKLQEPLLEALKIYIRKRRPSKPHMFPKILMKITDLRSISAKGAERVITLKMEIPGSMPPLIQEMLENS
From the text: (§1) For example, a chimeric receptor transactivation assay which tests for agonist-like activity in the RARα, RARβ, RARγ, RXRα receptor subtypes, and which is based on work published by Feigner P. L. and Holm M. (1989) Focus, 112 is described in detail in U.S. Pat. No. 5,455,265. The specification of U.S. Pat. No. 5,455,265 is hereby expressly incorporated by reference.
(§2) The results obtained in this assay are expressed in EC50 numbers, as they are also in the chimeric receptor transactivation assay.

[2] = target: T2, RARγ receptors (Homo sapiens, UniProt P13631); test: chimeric receptor transactivation assay, RARγ; format: cell-based; conditions: agonist activity
T2 sequence (P13631 185-419 limits assumed): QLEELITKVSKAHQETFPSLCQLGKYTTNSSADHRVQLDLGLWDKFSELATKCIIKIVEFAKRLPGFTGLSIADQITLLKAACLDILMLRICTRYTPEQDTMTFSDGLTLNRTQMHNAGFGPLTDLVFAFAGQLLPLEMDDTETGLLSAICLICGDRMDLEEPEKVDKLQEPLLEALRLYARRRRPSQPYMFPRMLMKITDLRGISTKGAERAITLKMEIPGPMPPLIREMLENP
From the text: as §1, §2

[3] = target: T3, RARα receptors (Homo sapiens, UniProt P10276); test: ligand binding assay; conditions: receptor read as RARα from the sentence
T3 construct: made in house; used as extract protein
T3 sequence (P10276 1-462): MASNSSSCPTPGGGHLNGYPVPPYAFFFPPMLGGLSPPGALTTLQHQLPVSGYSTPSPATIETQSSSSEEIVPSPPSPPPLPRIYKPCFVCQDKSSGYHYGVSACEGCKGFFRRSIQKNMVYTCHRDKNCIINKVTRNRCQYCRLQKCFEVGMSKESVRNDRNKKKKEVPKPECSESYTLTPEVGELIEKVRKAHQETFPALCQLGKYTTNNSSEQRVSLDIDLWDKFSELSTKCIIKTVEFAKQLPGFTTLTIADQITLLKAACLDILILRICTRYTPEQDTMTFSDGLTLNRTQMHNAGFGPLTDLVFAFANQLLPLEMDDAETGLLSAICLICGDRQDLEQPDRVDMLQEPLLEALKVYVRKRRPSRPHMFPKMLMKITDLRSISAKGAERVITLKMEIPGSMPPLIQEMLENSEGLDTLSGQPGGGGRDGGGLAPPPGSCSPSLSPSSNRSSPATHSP
Method: All binding assays were performed in a similar fashion. All six receptor types were derived from the expressed receptor type (RAR α, β, γ and RXR α, β, γ) expressed in Baculovirus. Stock solutions of all compounds were prepared as 10 mM ethanol solutions and serial dilutions carried out into 1:1 DMSO; ethanol. Assay buffers consisted of the following for all six receptor assays: 8% glycerol. 120 mM KCl. 8 mM Tris. 5 mM CHAPS 4 mM DTT and 0.24 mM PMSF. pH-7.4@room temperature.
All receptor biding assays were performed in the same manner. The final assay volume was 250 μl and contained from 10-40 μg of extract protein depending on receptor being assayed along with 5 nM of [^3H] all-trans retinoic acid or 10 nM [^3H] 9-cis retinoic acid and varying concentrations of competing ligand at concentrations that ranged from 0-10^−5M. The assays were formatted for a 96 well minitube system. Incubations were carried out at 4° C. until equilibrium was achieved. […] The amount of receptor-ligand complex was determined by liquid scintillation counting of hydroxyapitite pellet.
After correcting for non-specific binding, IC50 values were determined. […] The IC50 value was determined graphically from a loglogit plot of the data. The […] were determined by application of the Cheng-Prussof equation to the IC50 values, the labeled ligand concentration and the Kd of the labeled ligand. […]

CC1(C)CCC(C)(C)c2c1cc(C(=O)Nc1cc(F)c(C(=O)O)c(F)c1)c(O)c2Cl [Compound 2, 2,6-Difluoro-4-[(3-hydroxy-4-chloro-5,5,8 8-tetramethyl-5,6,7,8-tetrahydronaphthalene-2-carbonyl) -amino]-benzoic acid]
EC50 [1]: > 10 µM
EC50 [2]: > 10 µM
Kd [3]: 0.005 µM
